The record followed here is ChEMBL document CHEMBL1201862, “PubChem BioAssay data set” (2004).

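These data come from cells grown in 96-well plates and exposed to compound for 48 hours at five concentrations. The concentration for 50% growth inhibition is given as GI50.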 Active and inactive are the calls of the source. No stated cut-off is given here; in the data, active = GI50 up to about 1.1 µM and inactive = higher.

Some test systems named below: HOP-62; HCC 2998; NCI-H460; IGROV-1; HL-60; SK-MEL-2; SF-539; MOLT-4; RPMI-8226; RXF 393; BT-549; LOX IMVI; UO-31; HOP-92; HT-29; ACHN; DU-145; SK-MEL-28; CAKI-1; MCF7.
Assay in all cases: NCI tumour cell line growth inhibition, 48 h

Consider `COc1ccc(/C=N/c2ccc(-c3nc4ccccc4s3)cc2)cc1OC`, for which the GI50 with HOP-62 is 10.9 µM (inactive); with HCC 2998, 20.2 µM (inactive); with NCI-H460 it was 21.8 µM (inactive); with IGROV-1 it was 25.1 µM (inactive); in the experiment with HL-60, 1.3 µM (inactive); in the experiment on SK-MEL-2, 22 µM (inactive). The GI50 was 34.8 µM (inactive) with SF-539; 17.9 µM (inactive) with MOLT-4; 21.7 µM (inactive) with RPMI-8226; 20.3 µM (inactive) in the experiment on RXF 393; 30.5 µM (inactive) with BT-549; 21.8 µM (inactive) with LOX IMVI. Moreover, the GI50 in the experiment on UO-31 is 27.5 µM (inactive); in the experiment with HOP-92, 22.4 µM (inactive); with HT-29, 30.7 µM (inactive); with ACHN, 22.5 µM (inactive); with DU-145 it was 38.3 µM (inactive); with SK-MEL-28, 38 µM (inactive). Moreover, the GI50 in the experiment on CAKI-1 is 31.3 µM (inactive).
As to `n1onc2c1NC1Nc3nonc3NC1N2` (stereo unspecified), the GI50 in the experiment on HOP-62, with HCC 2998, with NCI-H460, in the experiment on IGROV-1, with HL-60 and with SF-539 was > 100 µM (inactive) in each case. Besides, the GI50 in the experiment with MOLT-4, in the experiment on MCF7, in the experiment with RPMI-8226, in the experiment with LOX IMVI, in the experiment on UO-31 and in the experiment on HOP-92 was > 100 µM (inactive) each time. Besides, the GI50 with HT-29, in the experiment with ACHN, in the experiment on DU-145, with SK-MEL-28 and in the experiment on CAKI-1 was > 100 µM (inactive) each time.
In the case of `O=C(O)c1ccccc1C(=O)NCC1S(=O)(=O)OCCOS1(=O)=O`, the GI50 with HOP-62, in the experiment on HCC 2998, with NCI-H460, in the experiment on IGROV-1, in the experiment on HL-60 and with SK-MEL-2 was > 100 µM (inactive) each time. The GI50 in the experiment on SF-539, in the experiment on MOLT-4, with MCF7, in the experiment with RPMI-8226, in the experiment on RXF 393 and in the experiment with LOX IMVI was > 100 µM (inactive) throughout. In addition, the GI50 in the experiment on UO-31, with HOP-92, in the experiment with HT-29, in the experiment with ACHN, in the experiment on DU-145 and in the experiment with SK-MEL-28 was > 100 µM (inactive) throughout. The GI50 with CAKI-1 is > 100 µM (inactive).
Consider `O=C(NC1CCN(Cc2ccccc2)CC1)c1ccc(I)cc1`, for which the GI50 was 55.6 µM (inactive) in the experiment with HOP-62; > 100 µM (inactive) in the experiment with NCI-H460; 94 µM (inactive) with IGROV-1; > 100 µM (inactive) with HL-60; 75.9 µM (inactive) in the experiment on SK-MEL-2; 78.3 µM (inactive) in the experiment with SF-539. Moreover, the GI50 was > 100 µM (inactive) with MOLT-4; 63.5 µM (inactive) in the experiment with RPMI-8226; 25.2 µM (inactive) with RXF 393; 87.5 µM (inactive) in the experiment on BT-549; > 100 µM (inactive) in the experiment on LOX IMVI; 22.9 µM (inactive) in the experiment on UO-31. Moreover, the GI50 in the experiment with HOP-92 is 34 µM (inactive); in the experiment on HT-29, 19.8 µM (inactive); in the experiment on ACHN it was 96.2 µM (inactive); with DU-145, 91.6 µM (inactive); with SK-MEL-28 it was 63.2 µM (inactive); in the experiment with CAKI-1 it was 70.1 µM (inactive).
As to `C(=C\N1CCCCC1)/c1nnnn1-c1ccccc1`, the GI50 in the experiment with HOP-62 is 54 µM (inactive); in the experiment on HCC 2998, 90.6 µM (inactive); in the experiment on NCI-H460 it was 73.8 µM (inactive); in the experiment with IGROV-1 it was 27.7 µM (inactive); in the experiment on HL-60 it was 15.8 µM (inactive); with SF-539 it was 25.3 µM (inactive). In addition, the GI50 was 17.4 µM (inactive) with MOLT-4; 21.1 µM (inactive) in the experiment with RPMI-8226; 13.9 µM (inactive) with RXF 393; 33 µM (inactive) with BT-549; 17.6 µM (inactive) in the experiment on LOX IMVI; 30 µM (inactive) in the experiment on UO-31. The GI50 was 66.1 µM (inactive) in the experiment on HOP-92; 84.5 µM (inactive) with HT-29; 37.9 µM (inactive) with ACHN; > 100 µM (inactive) in the experiment with DU-145; 44.7 µM (inactive) in the experiment on SK-MEL-28; 12.4 µM (inactive) in the experiment with CAKI-1.
As for `COc1cc(C2SCC(=O)N2c2ccc(Cl)cc2)cc(OC)c1OC` (stereo unspecified), the GI50 was 21.1 µM (inactive) with HOP-62; > 30.2 µM (inactive) in the experiment on HCC 2998; 3.7 µM (inactive) with NCI-H460; 20.7 µM (inactive) with IGROV-1; 2.46 µM (inactive) in the experiment on HL-60; 8.51 µM (inactive) in the experiment with SK-MEL-2. In addition, the GI50 in the experiment on SF-539 is > 100 µM (inactive); in the experiment on MOLT-4 it was 1.69 µM (inactive); in the experiment with MCF7, 5.22 µM (inactive); with RPMI-8226 it was 8.93 µM (inactive); with RXF 393, 19.1 µM (inactive); in the experiment with BT-549, 20.2 µM (inactive). The GI50 in the experiment on LOX IMVI is 1.03 µM (active); in the experiment on UO-31, 1.19 µM (inactive); in the experiment on HOP-92, > 49.1 µM (inactive); with SK-MEL-28 it was > 72.9 µM (inactive); in the experiment on CAKI-1 it was 10.4 µM (inactive).
In the case of `O=C(/N=N/c1cccc(Cl)c1)NNc1cccc(Cl)c1`, the GI50 in the experiment on HOP-62 was 5.3 µM (inactive); in the experiment with HCC 2998, 14.7 µM (inactive); with NCI-H460, 15.5 µM (inactive); in the experiment with IGROV-1, 17.5 µM (inactive); in the experiment on HL-60, 16.7 µM (inactive); in the experiment on SK-MEL-2 it was 11.5 µM (inactive). Moreover, the GI50 with MOLT-4 was 10.9 µM (inactive); with RPMI-8226, 8.36 µM (inactive); in the experiment with BT-549, > 10 µM (inactive); in the experiment with LOX IMVI, 12.9 µM (inactive); with UO-31, 8.49 µM (inactive); in the experiment with HT-29, 22.9 µM (inactive). The GI50 in the experiment on ACHN was 9.25 µM (inactive); in the experiment on DU-145 it was 17.5 µM (inactive); with SK-MEL-28, 20.1 µM (inactive); with CAKI-1 it was 18.1 µM (inactive).
`N#Cc1nc(/C=C/c2cccnc2)oc1N`: the GI50 in the experiment on HOP-62, with HCC 2998, in the experiment on NCI-H460, with IGROV-1, with HL-60 and in the experiment with SK-MEL-2 was > 100 µM (inactive) each time. The GI50 in the experiment on SF-539, in the experiment with MOLT-4, in the experiment with MCF7, in the experiment on RPMI-8226, with RXF 393 and in the experiment on LOX IMVI was > 100 µM (inactive) throughout. The GI50 in the experiment with UO-31, with HOP-92, in the experiment with HT-29, in the experiment with ACHN, with DU-145 and in the experiment on SK-MEL-28 was > 100 µM (inactive) each time. For the same compound, the GI50 with CAKI-1 is > 100 µM (inactive).
As for `O=C(Nc1ccccc1)O/N=C(/CBr)c1ccccc1`, the GI50 in the experiment on HOP-62 is 24.3 µM (inactive); in the experiment on HCC 2998, 18.5 µM (inactive); in the experiment with NCI-H460, 19 µM (inactive); with IGROV-1, 14.6 µM (inactive); in the experiment with HL-60, 4.66 µM (inactive); with SK-MEL-2, 13.9 µM (inactive). Further, the GI50 is 7.11 µM (inactive) in the experiment on SF-539; 3.18 µM (inactive) with MOLT-4; 16.7 µM (inactive) in the experiment with MCF7; 16.3 µM (inactive) in the experiment with RPMI-8226; 31.9 µM (inactive) in the experiment with RXF 393; 3.15 µM (inactive) in the experiment with LOX IMVI. The GI50 in the experiment with UO-31 was 16.1 µM (inactive); with HOP-92, 16.1 µM (inactive); in the experiment on HT-29 it was 6.87 µM (inactive); in the experiment with ACHN, 17.1 µM (inactive); with DU-145 it was 19.3 µM (inactive); in the experiment with SK-MEL-28, 19.5 µM (inactive). Also, the GI50 in the experiment on CAKI-1 is 14.8 µM (inactive).
For the compound `C=C1CCCCCCCCCCC12SCCC2CCCCSC` (stereo unspecified), the GI50 with HOP-62 was 20 µM (inactive); in the experiment with HCC 2998, 21.4 µM (inactive); with NCI-H460, 34.5 µM (inactive); in the experiment on IGROV-1, 22.5 µM (inactive); with HL-60 it was 26.5 µM (inactive); in the experiment on SK-MEL-2, 17.5 µM (inactive). Moreover, the GI50 with SF-539 was 20.6 µM (inactive); in the experiment with MOLT-4, 21.3 µM (inactive); with MCF7 it was 21 µM (inactive); with RPMI-8226 it was 24.4 µM (inactive); in the experiment on RXF 393 it was 29.2 µM (inactive); with LOX IMVI, 19.5 µM (inactive). For the same compound, the GI50 in the experiment with UO-31 is 35 µM (inactive); in the experiment on HOP-92, 28.1 µM (inactive); with HT-29, 22.3 µM (inactive); in the experiment on ACHN it was 20.3 µM (inactive); in the experiment on DU-145, 40.6 µM (inactive); with SK-MEL-28 it was 26.5 µM (inactive).
As to `Cc1ccc(N(C)S(=O)(=O)c2ccccc2[N+](=O)[O-])cc1`, the GI50 is 49.1 µM (inactive) in the experiment with HOP-62; 32.5 µM (inactive) in the experiment on NCI-H460; > 100 µM (inactive) with HL-60; 30.8 µM (inactive) in the experiment with SK-MEL-2; 40.1 µM (inactive) in the experiment on SF-539; 49 µM (inactive) in the experiment on MCF7. Besides, the GI50 is 33.9 µM (inactive) in the experiment on RPMI-8226; 34.9 µM (inactive) in the experiment with RXF 393; 23.3 µM (inactive) in the experiment on BT-549; 32.4 µM (inactive) in the experiment with LOX IMVI; 40.5 µM (inactive) in the experiment on UO-31; 34 µM (inactive) in the experiment on HT-29. The GI50 with ACHN was 58.9 µM (inactive); with DU-145 it was 98.4 µM (inactive); with SK-MEL-28 it was 44.9 µM (inactive); in the experiment with CAKI-1, 48.2 µM (inactive).
